# Results as given in PubChem BioAssay (NCI).
#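 Five concentrations, 48 hours, 96-well plates. The concentration for 50% growth inhibition is given as GI50. TGI: concentration producing complete growth inhibition.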
# Experiments:
# Assay in all cases: NCI anticancer screen, dose series, 48 h
# SK-MEL-2 melanoma = tested on: SK-MEL-2 melanoma
# EKVX NSCLC = tested on: EKVX NSCLC
# DU-145 prostate = tested on: DU-145 prostate
# COLO 205 colon = tested on: COLO 205 colon
# HOP-92 NSCLC = tested on: HOP-92 NSCLC
# HCT-116 colon = tested on: HCT-116 colon
# SK-MEL-28 melanoma = tested on: SK-MEL-28 melanoma
# KM12 colon = tested on: KM12 colon
# HL-60(TB) leukemia = tested on: HL-60(TB) leukemia
# HT29 colon = tested on: HT29 colon
# NCI-H226 lung = tested on: NCI-H226 lung
# MDA-MB-435 = tested on: MDA-MB-435
# HS 578T breast = tested on: HS 578T breast
# UO-31 renal = tested on: UO-31 renal
# SW-620 colon = tested on: SW-620 colon
# MDA-MB-231 breast = tested on: MDA-MB-231 breast
# OVCAR-5 ovarian = tested on: OVCAR-5 ovarian
# SN12C renal = tested on: SN12C renal
# SF-268 CNS = tested on: SF-268 CNS
# LOX IMVI melanoma = tested on: LOX IMVI melanoma
# MCF7 breast = tested on: MCF7 breast
# RPMI-8226 leukemia = tested on: RPMI-8226 leukemia
# M14 melanoma = tested on: M14 melanoma
# NCI-H460 lung = tested on: NCI-H460 lung
# K-562 leukemia = tested on: K-562 leukemia
# 786-0 renal = tested on: 786-0 renal
# NCI/ADR-RES ovarian = tested on: NCI/ADR-RES ovarian
# MALME-3M melanoma = tested on: MALME-3M melanoma
# NCI-H23 lung = tested on: NCI-H23 lung
# IGROV1 ovarian = tested on: IGROV1 ovarian
# T-47D breast = tested on: T-47D breast
# PC-3 prostate = tested on: PC-3 prostate
# SK-MEL-5 melanoma = tested on: SK-MEL-5 melanoma
# SF-539 CNS = tested on: SF-539 CNS
# A498 renal = tested on: A498 renal
# TK-10 renal = tested on: TK-10 renal
# BT-549 breast = tested on: BT-549 breast
# OVCAR-8 ovarian = tested on: OVCAR-8 ovarian
# SR leukemia = tested on: SR leukemia
# NCI-H522 lung = tested on: NCI-H522 lung
# CCRF-CEM leukemia = tested on: CCRF-CEM leukemia
# MOLT-4 leukemia = tested on: MOLT-4 leukemia
# U251 CNS = tested on: U251 CNS
# SK-OV-3 ovarian = tested on: SK-OV-3 ovarian
# UACC-257 melanoma = tested on: UACC-257 melanoma
# SNB-75 CNS = tested on: SNB-75 CNS
# UACC-62 melanoma = tested on: UACC-62 melanoma
# HCT-15 colon = tested on: HCT-15 colon
# HOP-62 NSCLC = tested on: HOP-62 NSCLC
# RXF 393 renal = tested on: RXF 393 renal
# SNB-19 CNS = tested on: SNB-19 CNS
# OVCAR-4 ovarian = tested on: OVCAR-4 ovarian
# ACHN renal = tested on: ACHN renal
# SF-295 CNS = tested on: SF-295 CNS
# A549 NSCLC = tested on: A549 NSCLC
# HCC-2998 colon = tested on: HCC-2998 colon
smiles,measurement,setting,value
Oc1ccc(CSc2nnc(-c3ccncc3)o2)c2cccnc12,GI50,SK-MEL-2 melanoma,2.11 µM
same,TGI,SK-MEL-2 melanoma,7.66 µM
same,GI50,EKVX NSCLC,2.74 µM
same,TGI,EKVX NSCLC,> 100 µM
same,GI50,DU-145 prostate,0.779 µM
same,TGI,DU-145 prostate,> 100 µM
same,GI50,COLO 205 colon,4.32 µM
same,TGI,COLO 205 colon,> 100 µM
same,GI50,HOP-92 NSCLC,0.412 µM
same,TGI,HOP-92 NSCLC,2.73 µM
same,GI50,HCT-116 colon,0.68 µM
same,TGI,HCT-116 colon,> 100 µM
same,GI50,SK-MEL-28 melanoma,4.37 µM
same,TGI,SK-MEL-28 melanoma,> 100 µM
same,GI50,KM12 colon,3.9 µM
same,TGI,KM12 colon,> 100 µM
same,GI50,HL-60(TB) leukemia,2.9 µM
same,TGI,HL-60(TB) leukemia,50.7 µM
same,GI50,HT29 colon,3.46 µM
same,TGI,HT29 colon,> 100 µM
same,GI50,NCI-H226 lung,3.6 µM
same,TGI,NCI-H226 lung,> 100 µM
same,GI50,MDA-MB-435,0.613 µM
same,TGI,MDA-MB-435,> 100 µM
same,GI50,HS 578T breast,0.751 µM
same,TGI,HS 578T breast,58.7 µM
same,GI50,UO-31 renal,1.83 µM
same,TGI,UO-31 renal,> 100 µM
same,GI50,SW-620 colon,1.37 µM
same,TGI,SW-620 colon,> 100 µM
same,GI50,MDA-MB-231 breast,1.89 µM
same,TGI,MDA-MB-231 breast,4.87 µM
same,GI50,OVCAR-5 ovarian,3.54 µM
same,TGI,OVCAR-5 ovarian,> 100 µM
same,GI50,SN12C renal,0.619 µM
same,TGI,SN12C renal,6.13 µM
same,GI50,SF-268 CNS,2.18 µM
same,TGI,SF-268 CNS,> 100 µM
same,GI50,LOX IMVI melanoma,0.864 µM
same,TGI,LOX IMVI melanoma,> 100 µM
same,GI50,MCF7 breast,0.403 µM
same,TGI,MCF7 breast,> 100 µM
same,GI50,RPMI-8226 leukemia,0.524 µM
same,TGI,RPMI-8226 leukemia,4.02 µM
same,GI50,M14 melanoma,2.11 µM
same,TGI,M14 melanoma,> 100 µM
same,GI50,NCI-H460 lung,0.397 µM
same,TGI,NCI-H460 lung,> 100 µM
same,GI50,K-562 leukemia,0.622 µM
same,TGI,K-562 leukemia,> 100 µM
same,GI50,786-0 renal,3.81 µM
same,TGI,786-0 renal,70.2 µM
same,GI50,NCI/ADR-RES ovarian,3.95 µM
same,TGI,NCI/ADR-RES ovarian,> 100 µM
same,GI50,MALME-3M melanoma,2.03 µM
same,TGI,MALME-3M melanoma,6.88 µM
same,GI50,NCI-H23 lung,0.951 µM
same,TGI,NCI-H23 lung,> 100 µM
same,GI50,IGROV1 ovarian,3.33 µM
same,TGI,IGROV1 ovarian,> 100 µM
same,GI50,T-47D breast,3.08 µM
same,TGI,T-47D breast,> 100 µM
same,GI50,PC-3 prostate,0.626 µM
same,TGI,PC-3 prostate,9.34 µM
same,GI50,SK-MEL-5 melanoma,1.03 µM
same,TGI,SK-MEL-5 melanoma,2.63 µM
same,GI50,SF-539 CNS,2.18 µM
same,TGI,SF-539 CNS,> 100 µM
same,GI50,A498 renal,2.64 µM
same,TGI,A498 renal,9.52 µM
same,GI50,TK-10 renal,3.36 µM
same,TGI,TK-10 renal,> 100 µM
same,GI50,BT-549 breast,1.71 µM
same,TGI,BT-549 breast,> 100 µM
same,GI50,OVCAR-8 ovarian,0.62 µM
same,TGI,OVCAR-8 ovarian,> 100 µM
same,GI50,SR leukemia,2.21 µM
same,TGI,SR leukemia,> 100 µM
same,GI50,NCI-H522 lung,0.558 µM
same,TGI,NCI-H522 lung,> 100 µM
same,GI50,CCRF-CEM leukemia,2.53 µM
same,TGI,CCRF-CEM leukemia,> 100 µM
same,GI50,MOLT-4 leukemia,3.71 µM
same,TGI,MOLT-4 leukemia,> 100 µM
same,GI50,U251 CNS,0.494 µM
same,TGI,U251 CNS,> 100 µM
same,GI50,SK-OV-3 ovarian,3.11 µM
same,TGI,SK-OV-3 ovarian,9.81 µM
same,GI50,UACC-257 melanoma,2.61 µM
same,TGI,UACC-257 melanoma,8.38 µM
same,GI50,SNB-75 CNS,1.52 µM
same,TGI,SNB-75 CNS,25.5 µM
same,GI50,UACC-62 melanoma,2.87 µM
same,TGI,UACC-62 melanoma,> 100 µM
same,GI50,HCT-15 colon,2.74 µM
same,TGI,HCT-15 colon,> 100 µM
same,GI50,HOP-62 NSCLC,2.37 µM
same,TGI,HOP-62 NSCLC,> 100 µM
same,GI50,RXF 393 renal,2.41 µM
same,TGI,RXF 393 renal,> 100 µM
same,GI50,SNB-19 CNS,1.47 µM
same,TGI,SNB-19 CNS,> 100 µM
same,GI50,OVCAR-4 ovarian,3.19 µM
same,TGI,OVCAR-4 ovarian,> 100 µM
same,GI50,ACHN renal,2.28 µM
same,TGI,ACHN renal,8.31 µM
same,GI50,SF-295 CNS,1.75 µM
same,TGI,SF-295 CNS,8.32 µM
same,GI50,A549 NSCLC,0.767 µM
same,TGI,A549 NSCLC,> 100 µM
same,GI50,HCC-2998 colon,3.38 µM
same,TGI,HCC-2998 colon,> 100 µM
